Experimental data from PubChem BioAssay (NCI).
“And” between values parts separate entries of the source, which are not always exact repeats. Equal values may be shown once.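 96-well plates; 48 h exposure; 5 concentrations. Endpoints by linear interpolation between flanking doses. Not reached: highest tested concentration assigned. GI50 = concentration required for 50% inhibition of growth. The concentration for full growth arrest is given as TGI.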

Legend:
Assay in all cases: DTP human tumour cell line panel, 48 h
EKVX NSCLC = test system: EKVX NSCLC
HCT-116 colon = test system: HCT-116 colon
SK-MEL-2 melanoma = test system: SK-MEL-2 melanoma
IGROV1 ovarian = test system: IGROV1 ovarian
RPMI-8226 leukemia = test system: RPMI-8226 leukemia
SF-295 CNS = test system: SF-295 CNS
NCI-H522 lung = test system: NCI-H522 lung
SNB-75 CNS = test system: SNB-75 CNS
OVCAR-8 ovarian = test system: OVCAR-8 ovarian
CCRF-CEM leukemia = test system: CCRF-CEM leukemia

| SMILES | GI50 (EKVX NSCLC) | TGI (EKVX NSCLC) | GI50 (HCT-116 colon) | TGI (HCT-116 colon) | GI50 (SK-MEL-2 melanoma) | TGI (SK-MEL-2 melanoma) | GI50 (IGROV1 ovarian) | TGI (IGROV1 ovarian) | GI50 (RPMI-8226 leukemia) | TGI (RPMI-8226 leukemia) | GI50 (SF-295 CNS) | TGI (SF-295 CNS) | GI50 (NCI-H522 lung) | TGI (NCI-H522 lung) | GI50 (SNB-75 CNS) | TGI (SNB-75 CNS) | GI50 (OVCAR-8 ovarian) | TGI (OVCAR-8 ovarian) | GI50 (CCRF-CEM leukemia) | TGI (CCRF-CEM leukemia) |
| --- | --- | --- | --- | --- | --- | --- | --- | --- | --- | --- | --- | --- | --- | --- | --- | --- | --- | --- | --- | --- |
| OCC#Cc1ccccc1C#Cc1ccc(C#Cc2ccccc2C#CCO)cc1 | 34.6 µM | 97.1 µM | 25.8 µM | 66.7 µM | 36.2 µM | 79.9 µM | 30.4 µM | > 100 µM | 26.4 µM | 89.3 µM | 22.7 µM | 62.6 µM | 50.1 µM | > 100 µM | 85.1 µM | > 100 µM | 79.1 µM | > 100 µM | 38.1 µM | > 100 µM |
| Cc1ccc(NC(=O)C(=O)C2C(=O)NC(=O)NC2=O)c(C)c1 | – | > 100 µM | – | > 100 µM | – | > 100 µM | – | > 100 µM | – | > 100 µM | – | > 100 µM | – | > 100 µM | – | > 100 µM | – | > 100 µM | – | > 100 µM |
| Cn1c(=O)nc2n(-c3ccc(F)c(F)c3)c3ccccc3nc-2c1=O | – | 17.7 µM | – | 26.5 µM | – | 55.3 µM | – | 41.4 µM | – | 72.2 µM | – | 32.4 µM | – | 25.8 µM | – | 75 µM | – | 68.1 µM | – | 42.2 µM |
| COc1ccc2cc(C(=O)N3CCC([C@@H](C)C(=O)NCc4ccc5c(c4)OCO5)CC3)[nH]c2c1 | > 100 µM | > 100 µM | > 100 µM | > 100 µM | > 100 µM | > 100 µM | > 100 µM | > 100 µM | > 100 µM | > 100 µM | 68.5 µM | > 100 µM | > 100 µM | > 100 µM | 17.8 µM | 78.3 µM | 48.4 µM | > 100 µM | > 100 µM | > 100 µM |
| COc1nc2c(c(=O)n1C)CN(c1ccccc1)C(=O)CN2C | 19.9 µM | > 100 µM | 60.5 µM | > 100 µM | > 100 µM | > 100 µM | 4.33 µM | > 100 µM | 72.6 µM | > 100 µM | 52.6 µM | > 100 µM | 96.7 µM | > 100 µM | 48.9 µM | > 100 µM | 74.5 µM | > 100 µM | > 100 µM | > 100 µM |
| C=CCC1(CN(C)C)CC/C(=C\c2cc(OC)c(OC)c(OC)c2)C1=O (configuration not stated) | – | 61.4 µM | – | 31.3 µM | – | > 100 µM | – | 74.6 µM | – | 59.6 µM | – | 92.8 µM | – | 29.4 µM | – | > 100 µM | – | 54.6 µM | – | 51.9 µM |
| COC(=O)[C@@H](C)C[C@H](Cc1ccccc1)NC(=O)c1csc([C@@H](C[C@H](C(C)C)N(C)C(=O)[C@@H](NC(=O)[C@H]2CCCCN2C)c2ccc(F)cc2)OC(C)=O)n1 | – | 25 µM and > 100 µM | – | 25 µM and > 100 µM | 0.00682 µM and 0.0293 µM | > 100 µM | – | 25 µM and > 100 µM | 0.00504 µM and 0.0025 µM and 0.0207 µM | 25 µM and 22 µM | – | 25 µM and > 100 µM | 0.00259 µM and 0.0234 µM | – | – | 17.6 µM and 61.3 µM | – | 25 µM and > 100 µM | – | 25 µM and > 100 µM |
| CC(C)(C)c1cc[n+](C[n+]2ccc(C(C)(C)C)cc2)cc1 | – | > 100 µM | – | > 100 µM | – | > 100 µM | – | > 100 µM | – | > 100 µM | – | > 100 µM | – | > 100 µM | – | > 100 µM | – | > 100 µM | – | > 100 µM |
| C[C@]1(c2nc3c(C(N)=O)cccc3[nH]2)CCCN1 | > 100 µM | > 100 µM | 48.2 µM and 65.7 µM | > 100 µM | 79.4 µM and > 100 µM | > 100 µM | 32.7 µM and 60.5 µM | > 100 µM | > 100 µM and 61.6 µM | > 100 µM | 56.1 µM and > 58.3 µM | > 100 µM | > 63 µM and 97.6 µM | > 100 µM | > 100 µM | > 100 µM | 69.5 µM and 99.8 µM | > 100 µM | > 100 µM | > 100 µM |
| CCCC[C@H](CCc1ccccc1)N(C(=O)OC)N1CCC[C@H]1COC | – | 35.2 µM | – | 28.2 µM | – | 34.1 µM | – | 56.8 µM | – | > 100 µM | – | 33.5 µM | – | 28.1 µM | – | 79.1 µM | – | 71.5 µM | – | 31.3 µM |
